Key:
[1] = target: NAMPT (human, recombinant, C-terminally His-tagged) (Homo sapiens, UniProt P43490); test: Time-Resolved Fluorescence Resonance Energy Transfer (TR-FRET) Binding Assay of NAMPT; conditions: without substrates; 6.8 nM NAMPT, 200 nM probe, 3 hours equilibration
Summary of the method: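 Read-out is the time-resolved FRET ratio Em520/Em495 (excitation 337 nm) between a terbium anti-His antibody (1 nM) on the enzyme and an Oregon Green 488-labelled nicotinamide-competitive inhibitor probe (200 nM). Enzyme was 6.8 nM, DMSO 2%, pH 7.5 HEPES buffer; 3 h room-temperature equilibration preceded reading.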

[2] = target: NAMPT (Homo sapiens, UniProt P43490); test: TR-FRET Binding Assay of NAMPT with PRPP; conditions: with 200 μM PRPP and 2.5 mM ATP; 2 nM NAMPT, 2 nM probe, 16 hours equilibration
Summary of the method: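 NAMPT 2 nM + probe 2 nM + Tb-anti-His Ab 1 nM; PRPP 200 μM, ATP 2.5 mM, DMSO 2%; 16 h equilibration before TR-FRET read.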

[3] = system: PC3 cells; test: NAMPT Cell Proliferation Assay; assay type: cell-based; conditions: Homo sapiens, PC-3, 120 h, 5 days incubation, cell viability by Cell Titer Glo
Summary of the method: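 Following overnight attachment in RPMI with 10% heat-inactivated FBS, PC3 cells at 500 per well receive compounds spanning 10 μM down to 1×10^−5 μM. Growth is assessed by luminescent viability read after 5 days.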

Chain of NAMPT (P43490 whole entry): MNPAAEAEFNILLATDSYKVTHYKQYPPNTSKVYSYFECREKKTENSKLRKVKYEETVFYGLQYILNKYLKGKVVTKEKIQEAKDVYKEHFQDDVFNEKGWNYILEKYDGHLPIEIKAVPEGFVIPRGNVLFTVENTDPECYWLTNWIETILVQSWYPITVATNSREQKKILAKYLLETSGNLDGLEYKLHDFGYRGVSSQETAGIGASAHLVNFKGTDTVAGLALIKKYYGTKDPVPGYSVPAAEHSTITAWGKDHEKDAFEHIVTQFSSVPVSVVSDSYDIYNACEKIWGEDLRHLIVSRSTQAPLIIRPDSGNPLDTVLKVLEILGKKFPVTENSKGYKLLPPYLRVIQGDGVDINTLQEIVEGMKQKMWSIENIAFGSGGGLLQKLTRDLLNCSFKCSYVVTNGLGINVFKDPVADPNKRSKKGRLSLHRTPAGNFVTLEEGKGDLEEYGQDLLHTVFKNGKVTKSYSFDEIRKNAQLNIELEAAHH
Chain of NAMPT (human, recombinant, C-terminally His-tagged) (P43490 whole entry): as above

Structure (SMILES) | IC50 [1] | IC50 [2] | IC50 [3]
CC(C)(O)Cn1cc(-c2ccc(C(=O)NCc3ccn4ccnc4c3)cc2)cn1 [Example 298, 4-[1-(2-hydroxy-2-methylpropyl)-1H-pyrazol-4-yl]-N-(imidazo[1,2-a]pyridin-7-ylmethyl)benzamide] | 3.41 µM | 0.000557 µM | 2.37 µM
CC(C)Cn1cc(-c2ncc(C(=O)NCc3ccn4ccnc4c3)s2)cn1 [Example 205, N-(imidazo[1,2-a]pyridin-7-ylmethyl)-2-[1-(2-methylpropyl)-1H-pyrazol-4-yl]-1,3-thiazole-5-carboxamide] | 1.06 µM | 0.000358 µM | 0.483 µM
CC(C)OCC(=O)Nc1ccc(C(=O)NCc2ccc3nccn3c2)cc1 [Example 82, N-(imidazo[1,2-a]pyridin-6-ylmethyl)-4-{[(propan-2-yloxy)acetyl]amino}benzamide] | 0.357 µM | 0.00642 µM | 0.0679 µM
CC(C)C(=O)N1CC(c2ccc(NC(=O)NCc3ccn4ccnc4c3)cc2)C1 [Example 452, 1-(imidazo[1,2-a]pyridin-7-ylmethyl)-3-{4-[1-(2-methylpropanoyl)azetidin-3-yl]phenyl}urea] | 0.293 µM | 0.000285 µM | 0.0592 µM
O=C(NCc1ccn2ccnc2c1)c1ccc(C2(O)CCOCC2)s1 [Example 399, 5-(4-hydroxytetrahydro-2H-pyran-4-yl)-N-(imidazo[1,2-a]pyridin-7-ylmethyl)thiophene-2-carboxamide] | 9.5 µM | 0.00154 µM | 7.68 µM
CC(C)(O)C(=O)N1CC[C@@H](Oc2ccc(NC(=O)NCc3ccn4ccnc4c3)cc2)C1 [Example 334, 1-(4-{[(3R)-1-(2-hydroxy-2-methylpropanoyl)pyrrolidin-3-yl]oxy}phenyl)-3-(imidazo[1,2-a]pyridin-7-ylmethyl)urea] | 0.0809 µM | 0.000345 µM | 0.0219 µM
CC(=O)N1CC(Oc2ccc(NC(=O)NCc3ccn4ccnc4c3)cc2)C1 [Example 424, 1-{4-[(1-acetylazetidin-3-yl)oxy]phenyl}-3-(imidazo[1,2-a]pyridin-7-ylmethyl)urea] | 0.988 µM | 0.000494 µM | 0.521 µM
CC(C)[C@H]1COC(=O)N1c1ncc(C(=O)NCc2ccn3ccnc3c2)s1 [Example 185, N-(imidazo[1,2-a]pyridin-7-ylmethyl)-2-[(4S)-2-oxo-4-(propan-2-yl)-1,3-oxazolidin-3-yl]-1,3-thiazole-5-carboxamide] | > 10 µM | 0.00186 µM | 5.05 µM
CCOCC(=O)Nc1ccc(NC(=O)Nc2ccc3nccn3c2)cc1 [Example 39, 2-ethoxy-N-{4-[(imidazo[1,2-a]pyridin-6-ylcarbamoyl)amino]phenyl}acetamide] | 0.814 µM | 0.00026 µM | 7.28 µM

Further lines, results first:

IC50 [1] | IC50 [2] | IC50 [3] | Structure (SMILES)
0.0461 µM | 0.00158 µM | 0.00482 µM | CC(C)CC(=O)N1CCC(c2ccc(C(=O)NCc3cn4ccnc4cn3)cc2)CC1 [Example 816, N-(imidazo[1,2-a]pyrazin-6-ylmethyl)-4-[1-(3-methylbutanoyl)piperidin-4-yl]benzamide]
0.0917 µM | 0.00049 µM | 0.00465 µM | O=C(NCc1ccn2ccnc2c1)c1ccc(C2CCN(C(=O)CCC(F)(F)F)C2)s1 (stereo not drawn) [Example 796, N-(imidazo[1,2-a]pyridin-7-ylmethyl)-5-[1-(4,4,4-trifluorobutanoyl)pyrrolidin-3-yl]thiophene-2-carboxamide]
0.0285 µM | 0.000799 µM | 0.00165 µM | COc1cccc(C(=O)N2CCC(c3ccc(C(=O)NCc4ccn5ccnc5c4)s3)C2)c1 (stereo not drawn) [Example 759, N-(imidazo[1,2-a]pyridin-7-ylmethyl)-5-[1-(3-methoxybenzoyl)pyrrolidin-3-yl]thiophene-2-carboxamide]
0.645 µM | 0.000793 µM | 0.0807 µM | O=C(NCc1ccn2ccnc2c1)c1ccc(C2CCN(S(=O)(=O)C3CC3)C2)cc1 (stereo not drawn) [Example 626, 4-[1-(cyclopropylsulfonyl)pyrrolidin-3-yl]-N-(imidazo[1,2-a]pyridin-7-ylmethyl)benzamide]
